# Assay results reported in publication PMC8201054, “A Novel Benzopyrane Derivative Targeting Cancer Cell Metabolic and Survival Pathways” (Cancers, 2021).
# What was measured:
# [1] = biological target: T1, thioredoxin reductase 1 (TrxR) (Homo sapiens, UniProt Q16881); assay: DARTS proteomics in HEK293T lysate; TrxR activity assay in lysates of treated HCT116 cells; assay type: cell-based
# T1 construct: gene TXNRD1
# T1 sequence (Q16881 1-649): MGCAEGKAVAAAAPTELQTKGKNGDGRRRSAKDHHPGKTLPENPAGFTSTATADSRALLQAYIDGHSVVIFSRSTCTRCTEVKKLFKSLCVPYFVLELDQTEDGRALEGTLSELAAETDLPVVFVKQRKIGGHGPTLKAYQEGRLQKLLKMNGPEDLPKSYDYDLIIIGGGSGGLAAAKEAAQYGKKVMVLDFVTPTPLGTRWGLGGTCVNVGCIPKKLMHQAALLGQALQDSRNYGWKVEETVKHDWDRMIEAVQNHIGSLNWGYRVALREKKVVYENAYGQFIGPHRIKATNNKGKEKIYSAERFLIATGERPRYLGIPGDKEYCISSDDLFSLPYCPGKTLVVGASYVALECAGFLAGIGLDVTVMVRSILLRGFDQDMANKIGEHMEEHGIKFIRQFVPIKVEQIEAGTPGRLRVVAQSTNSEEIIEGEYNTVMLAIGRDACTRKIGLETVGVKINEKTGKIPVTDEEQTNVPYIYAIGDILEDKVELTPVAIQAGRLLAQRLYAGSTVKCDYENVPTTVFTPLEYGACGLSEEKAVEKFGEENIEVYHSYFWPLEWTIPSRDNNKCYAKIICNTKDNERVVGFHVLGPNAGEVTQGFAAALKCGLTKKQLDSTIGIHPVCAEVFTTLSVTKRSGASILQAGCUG
# [2] = biological target: T2, inositol-3-phosphate synthase (Homo sapiens, UniProt Q9NPH2); assay: DARTS proteomics in HEK293T lysate ([…]); assay type: cell-based
# T2 construct: gene ISYNA1
# T2 sequence (Q9NPH2 1-558): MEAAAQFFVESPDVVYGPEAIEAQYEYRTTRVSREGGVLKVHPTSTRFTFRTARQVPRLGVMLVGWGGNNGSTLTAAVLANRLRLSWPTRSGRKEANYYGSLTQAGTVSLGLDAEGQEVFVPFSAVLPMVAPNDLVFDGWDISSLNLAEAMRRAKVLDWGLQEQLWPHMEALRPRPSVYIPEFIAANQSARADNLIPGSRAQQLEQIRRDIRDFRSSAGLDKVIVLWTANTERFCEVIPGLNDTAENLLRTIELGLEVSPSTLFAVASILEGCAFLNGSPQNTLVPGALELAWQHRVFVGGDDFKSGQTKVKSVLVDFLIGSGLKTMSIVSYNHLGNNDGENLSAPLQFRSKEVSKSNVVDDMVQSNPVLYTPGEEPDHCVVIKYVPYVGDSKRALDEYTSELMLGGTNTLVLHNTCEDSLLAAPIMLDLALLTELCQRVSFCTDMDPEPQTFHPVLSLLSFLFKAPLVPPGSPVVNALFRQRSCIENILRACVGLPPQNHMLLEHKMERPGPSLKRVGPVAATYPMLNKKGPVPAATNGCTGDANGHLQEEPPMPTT
smiles,measurement,setting,value
"CC1(C)[C@H]2COc3ccc4ccccc4c3[C@H]2N=C2SC(c3ccccc3)=C(c3ccccc3)N21 [SIMR1281, (8aS,14aS)-9,9-dimethyl-11,12-diphenyl-8a,14a-dihydro-8H,9H-benzo[5, 6]chromeno[4,3-d]thiazolo[3,2-a]pyrimidine]",IC50,[1],2420 nM
same,DARTS proteomics in HEK293T lysate (0.01-1 μM),[2],SIMR1281 has shown a concentration-dependent affinity toward the inositol-3-phosphate synthase enzyme in the DARTS proteomic assay
